Columns and labels:
Type in all cases: biochemical
[1] = biological target: T1, IGFR-1 (Homo sapiens, UniProt P08069); experiment: Kinase inhibition assay, IGFR-1 (Table 2); conditions: Table 2, kinase inhibition class
T1 construct: Kinases are expressed as either kinase domains or full length constructs; made in house

[2] = biological target: T2, Zap-70 (Homo sapiens, UniProt P43403); experiment: Kinase inhibition assay (33P transfer), Zap-70; conditions: read-out: Zap-1
T2 construct: Kinases are expressed as either kinase domains or full length constructs; made in house
T2 sequence (P43403 1-619): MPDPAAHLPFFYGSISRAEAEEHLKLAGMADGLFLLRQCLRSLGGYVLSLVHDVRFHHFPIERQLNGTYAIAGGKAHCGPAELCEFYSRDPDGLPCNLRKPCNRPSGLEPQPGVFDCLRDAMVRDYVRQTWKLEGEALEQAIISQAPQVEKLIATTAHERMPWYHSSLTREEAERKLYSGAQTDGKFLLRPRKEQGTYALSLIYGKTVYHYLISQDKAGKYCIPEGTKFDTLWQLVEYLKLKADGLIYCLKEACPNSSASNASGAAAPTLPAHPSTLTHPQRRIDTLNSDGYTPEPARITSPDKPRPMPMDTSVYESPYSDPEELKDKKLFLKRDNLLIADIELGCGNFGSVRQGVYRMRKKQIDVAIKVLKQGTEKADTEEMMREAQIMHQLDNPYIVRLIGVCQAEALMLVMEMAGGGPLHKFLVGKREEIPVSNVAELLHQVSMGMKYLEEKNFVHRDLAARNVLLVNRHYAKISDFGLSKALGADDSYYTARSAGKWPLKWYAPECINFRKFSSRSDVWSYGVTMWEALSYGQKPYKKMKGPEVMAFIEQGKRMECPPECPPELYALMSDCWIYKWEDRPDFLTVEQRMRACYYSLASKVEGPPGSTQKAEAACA
In short: (§1)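 Activity was read as 33P incorporation, counted by liquid scintillation after a 0.5% phosphoric acid wash, into poly(Glu,Tyr) 4:1 or poly(Arg,Ser) 3:1 substrates coated on plates. Enzymes were tagged (GST or polyHis) kinase domains or full-length proteins from bacterial or insect-cell expression, sometimes with regulatory polypeptides.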

[3] = biological target: T3, Kdr (Homo sapiens, UniProt P35968); experiment: Kinase inhibition assay (33P transfer), Kdr; conditions: read-out: KDR-1
T3 construct: Kinases are expressed as either kinase domains or full length constructs; made in house
In short: as §1

[4] = biological target: T4, AKT (Homo sapiens, UniProt Q9Y243); experiment: Kinase inhibition assay (33P transfer), AKT; conditions: Table 2, kinase inhibition class; read-out: AKT3-1
T4 construct: Kinases are expressed as either kinase domains or full length constructs; made in house
T4 sequence (Q9Y243 whole entry, the tested form may be a part): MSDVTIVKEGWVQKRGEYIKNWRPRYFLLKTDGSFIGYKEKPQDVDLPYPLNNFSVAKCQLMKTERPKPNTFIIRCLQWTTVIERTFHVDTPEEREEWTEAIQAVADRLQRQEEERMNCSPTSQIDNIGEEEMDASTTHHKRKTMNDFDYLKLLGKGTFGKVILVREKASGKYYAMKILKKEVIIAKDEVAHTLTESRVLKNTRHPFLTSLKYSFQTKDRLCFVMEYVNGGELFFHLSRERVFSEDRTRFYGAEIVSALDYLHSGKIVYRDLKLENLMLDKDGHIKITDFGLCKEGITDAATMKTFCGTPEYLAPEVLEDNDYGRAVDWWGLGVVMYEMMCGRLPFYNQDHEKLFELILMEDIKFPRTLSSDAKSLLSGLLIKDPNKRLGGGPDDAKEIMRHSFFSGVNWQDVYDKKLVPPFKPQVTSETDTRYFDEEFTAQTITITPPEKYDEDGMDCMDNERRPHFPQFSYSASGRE
In short: as §1

[5] = biological target: T5, Itk (Homo sapiens, UniProt Q08881); experiment: Kinase inhibition assay (33P transfer), Itk; conditions: read-out: Itk-1
T5 construct: Kinases are expressed as either kinase domains or full length constructs; made in house
T5 sequence (Q08881 1-620): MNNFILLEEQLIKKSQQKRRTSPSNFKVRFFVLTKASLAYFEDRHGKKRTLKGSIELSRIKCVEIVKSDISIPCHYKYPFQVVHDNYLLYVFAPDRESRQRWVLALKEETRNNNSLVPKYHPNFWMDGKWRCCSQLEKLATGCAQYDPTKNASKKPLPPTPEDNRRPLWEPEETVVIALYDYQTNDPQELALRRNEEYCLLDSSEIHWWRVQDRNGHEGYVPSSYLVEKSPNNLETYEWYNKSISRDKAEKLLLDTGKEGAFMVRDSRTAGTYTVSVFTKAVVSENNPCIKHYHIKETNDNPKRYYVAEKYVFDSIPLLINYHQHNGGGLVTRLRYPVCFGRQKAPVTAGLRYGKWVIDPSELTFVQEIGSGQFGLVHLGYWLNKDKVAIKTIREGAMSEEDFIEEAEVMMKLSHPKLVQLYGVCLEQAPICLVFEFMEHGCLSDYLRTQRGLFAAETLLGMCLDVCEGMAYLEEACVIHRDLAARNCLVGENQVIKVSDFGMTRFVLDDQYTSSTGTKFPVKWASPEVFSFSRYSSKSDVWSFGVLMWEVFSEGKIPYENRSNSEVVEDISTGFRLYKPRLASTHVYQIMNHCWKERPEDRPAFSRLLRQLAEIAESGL
In short: (§2)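 Radiometric format: recombinant tagged kinase (catalytic domain or whole protein, sometimes combined with regulatory polypeptides) phosphorylates immobilised poly(Glu,Tyr) 4:1 or poly(Arg,Ser) 3:1 using [33P]ATP. Wells are washed in 0.5% phosphoric acid, then counted. IC50 is taken where substrate labelling falls by half.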

[6] = biological target: T6, c-Met (Homo sapiens, UniProt P08581); experiment: Kinase inhibition assay (33P transfer), c-Met; conditions: Table 2, kinase inhibition class; read-out: Met-1
T6 construct: Kinases are expressed as either kinase domains or full length constructs; made in house
T6 sequence (P08581 25-1390): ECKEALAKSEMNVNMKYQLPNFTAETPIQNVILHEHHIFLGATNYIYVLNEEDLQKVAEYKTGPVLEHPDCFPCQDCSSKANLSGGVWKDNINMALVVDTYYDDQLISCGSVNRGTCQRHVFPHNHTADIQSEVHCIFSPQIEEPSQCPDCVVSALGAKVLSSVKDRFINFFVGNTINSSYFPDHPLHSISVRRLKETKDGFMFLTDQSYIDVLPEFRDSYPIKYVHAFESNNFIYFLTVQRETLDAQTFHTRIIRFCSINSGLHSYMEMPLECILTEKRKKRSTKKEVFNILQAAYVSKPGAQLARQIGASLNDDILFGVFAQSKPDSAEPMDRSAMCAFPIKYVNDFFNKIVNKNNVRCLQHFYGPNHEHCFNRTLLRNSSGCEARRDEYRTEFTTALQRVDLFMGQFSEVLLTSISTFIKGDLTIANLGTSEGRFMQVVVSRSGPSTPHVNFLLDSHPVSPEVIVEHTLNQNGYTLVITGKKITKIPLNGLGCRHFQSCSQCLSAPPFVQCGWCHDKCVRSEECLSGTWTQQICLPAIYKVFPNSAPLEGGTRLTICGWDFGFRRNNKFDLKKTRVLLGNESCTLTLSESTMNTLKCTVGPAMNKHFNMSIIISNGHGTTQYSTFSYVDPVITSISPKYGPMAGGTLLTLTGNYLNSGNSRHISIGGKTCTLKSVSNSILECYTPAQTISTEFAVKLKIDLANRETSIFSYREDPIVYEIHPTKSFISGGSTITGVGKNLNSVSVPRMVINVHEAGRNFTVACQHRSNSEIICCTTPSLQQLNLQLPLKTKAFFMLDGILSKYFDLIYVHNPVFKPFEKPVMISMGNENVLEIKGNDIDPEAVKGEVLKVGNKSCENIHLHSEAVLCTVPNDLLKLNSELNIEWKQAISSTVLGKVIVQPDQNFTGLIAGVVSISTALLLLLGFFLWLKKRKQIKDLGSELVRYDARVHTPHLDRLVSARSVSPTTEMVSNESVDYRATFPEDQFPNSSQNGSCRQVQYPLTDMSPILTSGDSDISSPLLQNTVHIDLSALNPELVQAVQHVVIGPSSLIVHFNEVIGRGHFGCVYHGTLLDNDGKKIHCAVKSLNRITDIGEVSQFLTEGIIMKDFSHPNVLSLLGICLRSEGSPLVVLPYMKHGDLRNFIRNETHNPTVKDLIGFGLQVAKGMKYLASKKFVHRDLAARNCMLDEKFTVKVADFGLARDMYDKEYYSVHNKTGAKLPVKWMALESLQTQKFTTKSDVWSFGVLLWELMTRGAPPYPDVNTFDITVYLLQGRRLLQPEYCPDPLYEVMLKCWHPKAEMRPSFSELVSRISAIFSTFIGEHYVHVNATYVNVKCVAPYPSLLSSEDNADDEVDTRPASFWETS
In short: as §2

[7] = biological target: T7, ErbB2 (Homo sapiens, UniProt P04626); experiment: Kinase inhibition assay (33P transfer), ErbB2; conditions: read-out: ErbB2-2
T7 construct: Kinases are expressed as either kinase domains or full length constructs; made in house
T7 sequence (P04626 23-1255, species assumed): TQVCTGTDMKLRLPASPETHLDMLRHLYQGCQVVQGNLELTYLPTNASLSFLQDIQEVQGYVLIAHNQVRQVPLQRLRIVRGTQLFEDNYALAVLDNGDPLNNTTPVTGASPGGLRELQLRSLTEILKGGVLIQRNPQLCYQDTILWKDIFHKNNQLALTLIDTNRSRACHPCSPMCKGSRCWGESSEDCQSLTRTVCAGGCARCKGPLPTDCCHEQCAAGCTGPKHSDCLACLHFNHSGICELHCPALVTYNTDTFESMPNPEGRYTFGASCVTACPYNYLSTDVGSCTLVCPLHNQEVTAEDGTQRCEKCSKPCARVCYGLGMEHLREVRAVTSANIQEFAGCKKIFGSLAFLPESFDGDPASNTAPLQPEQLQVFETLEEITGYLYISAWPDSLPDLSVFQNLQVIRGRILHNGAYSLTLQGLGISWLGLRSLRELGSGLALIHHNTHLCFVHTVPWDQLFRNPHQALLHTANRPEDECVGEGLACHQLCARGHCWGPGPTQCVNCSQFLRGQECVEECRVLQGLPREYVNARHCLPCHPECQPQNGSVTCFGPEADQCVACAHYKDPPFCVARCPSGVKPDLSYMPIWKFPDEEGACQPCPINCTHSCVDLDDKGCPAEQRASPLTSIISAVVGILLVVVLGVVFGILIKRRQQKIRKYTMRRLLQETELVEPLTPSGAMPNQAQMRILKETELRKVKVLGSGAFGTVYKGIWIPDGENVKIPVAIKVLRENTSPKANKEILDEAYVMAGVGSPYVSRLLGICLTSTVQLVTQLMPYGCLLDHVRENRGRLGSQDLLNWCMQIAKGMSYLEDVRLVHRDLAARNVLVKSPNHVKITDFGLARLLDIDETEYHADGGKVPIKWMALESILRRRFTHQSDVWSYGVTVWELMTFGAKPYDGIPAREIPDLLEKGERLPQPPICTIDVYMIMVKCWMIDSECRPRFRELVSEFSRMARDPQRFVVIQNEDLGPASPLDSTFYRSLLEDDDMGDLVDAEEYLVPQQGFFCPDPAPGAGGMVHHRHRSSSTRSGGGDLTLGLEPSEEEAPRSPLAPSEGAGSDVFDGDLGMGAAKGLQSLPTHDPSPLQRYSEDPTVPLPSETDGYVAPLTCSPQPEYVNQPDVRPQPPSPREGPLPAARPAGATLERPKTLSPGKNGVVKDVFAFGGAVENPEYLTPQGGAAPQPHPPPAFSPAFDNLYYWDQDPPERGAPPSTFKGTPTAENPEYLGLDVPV
In short: as §2

[8] = biological target: T8, EGFR (Homo sapiens, UniProt P00533); experiment: Kinase inhibition assay (33P transfer), EGFR; conditions: Table 2, kinase inhibition class; read-out: EGFR-1
T8 construct: Kinases are expressed as either kinase domains or full length constructs; made in house
In short: as §2

[9] = biological target: T9, PDGFRB (Homo sapiens, UniProt P09619); experiment: Kinase inhibition assay (33P transfer), PDGFRB; conditions: read-out: PDGFRB-1
T9 construct: Kinases are expressed as either kinase domains or full length constructs; made in house
T9 sequence (P09619 33-1106, species assumed): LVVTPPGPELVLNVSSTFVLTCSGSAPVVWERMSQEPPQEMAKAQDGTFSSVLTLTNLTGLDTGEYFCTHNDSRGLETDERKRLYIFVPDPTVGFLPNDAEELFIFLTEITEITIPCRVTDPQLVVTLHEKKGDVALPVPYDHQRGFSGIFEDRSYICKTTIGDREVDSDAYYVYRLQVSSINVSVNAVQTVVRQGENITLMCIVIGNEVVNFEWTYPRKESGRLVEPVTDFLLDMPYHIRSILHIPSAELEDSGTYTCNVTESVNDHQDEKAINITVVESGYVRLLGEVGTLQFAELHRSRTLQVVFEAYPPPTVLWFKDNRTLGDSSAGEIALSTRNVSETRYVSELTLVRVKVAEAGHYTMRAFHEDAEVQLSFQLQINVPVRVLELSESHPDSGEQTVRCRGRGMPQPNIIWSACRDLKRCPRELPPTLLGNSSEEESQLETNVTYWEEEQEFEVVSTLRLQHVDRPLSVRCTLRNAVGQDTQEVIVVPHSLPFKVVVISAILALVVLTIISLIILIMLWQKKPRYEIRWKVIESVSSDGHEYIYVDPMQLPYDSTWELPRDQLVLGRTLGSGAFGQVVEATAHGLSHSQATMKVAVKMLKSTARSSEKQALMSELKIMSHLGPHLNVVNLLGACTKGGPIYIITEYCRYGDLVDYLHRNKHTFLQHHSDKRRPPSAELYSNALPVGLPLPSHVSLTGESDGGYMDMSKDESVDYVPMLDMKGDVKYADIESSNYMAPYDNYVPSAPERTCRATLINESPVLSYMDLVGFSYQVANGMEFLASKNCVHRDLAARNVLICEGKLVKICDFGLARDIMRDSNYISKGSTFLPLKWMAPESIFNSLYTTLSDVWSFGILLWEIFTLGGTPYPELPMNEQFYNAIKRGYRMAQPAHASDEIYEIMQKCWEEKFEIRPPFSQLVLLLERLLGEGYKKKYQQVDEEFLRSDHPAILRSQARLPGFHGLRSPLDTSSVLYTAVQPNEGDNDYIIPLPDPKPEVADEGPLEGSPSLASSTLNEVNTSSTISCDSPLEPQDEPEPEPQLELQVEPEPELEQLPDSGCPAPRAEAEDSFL

[10] = biological target: T10, Lck (Homo sapiens, UniProt P06239); experiment: Kinase inhibition assay (33P transfer), Lck; conditions: read-out: Lck-1
T10 construct: Kinases are expressed as either kinase domains or full length constructs; made in house
T10 sequence (P06239 whole entry, species assumed, the tested form may be a part): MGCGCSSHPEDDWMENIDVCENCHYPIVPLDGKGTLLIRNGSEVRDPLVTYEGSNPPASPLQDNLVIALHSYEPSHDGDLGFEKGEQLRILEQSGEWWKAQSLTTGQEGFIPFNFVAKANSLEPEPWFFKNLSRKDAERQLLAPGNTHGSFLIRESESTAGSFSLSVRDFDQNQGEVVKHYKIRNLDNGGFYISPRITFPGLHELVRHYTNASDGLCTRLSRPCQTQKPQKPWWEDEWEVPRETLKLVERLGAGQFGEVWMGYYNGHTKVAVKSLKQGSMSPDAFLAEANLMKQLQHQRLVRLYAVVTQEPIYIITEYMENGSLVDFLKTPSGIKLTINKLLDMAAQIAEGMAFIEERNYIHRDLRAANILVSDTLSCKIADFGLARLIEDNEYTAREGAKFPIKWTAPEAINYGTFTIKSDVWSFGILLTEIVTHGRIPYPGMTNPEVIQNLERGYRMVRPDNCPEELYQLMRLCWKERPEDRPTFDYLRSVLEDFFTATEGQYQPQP
In short: as §1

IC50 [1]	IC50 [2]	IC50 [3]	IC50 [4]	IC50 [5]	IC50 [6]	IC50 [7]	IC50 [8]	IC50 [9]	IC50 [10]	Structure (SMILES)
0.87 to 5.22 µM	7.62 to 9.79 µM	0.87 to 5.22 µM	7.62 to 9.79 µM	0.87 to 5.22 µM	5.22 to 7.62 µM	0.87 to 5.22 µM	0.87 to 5.22 µM	5.22 to 7.62 µM	5.22 to 7.62 µM	c1ccc(Cn2ncc3cc(Nc4ncnc(Nc5cc(-c6ccccc6)[nH]n5)n4)ccc32)cc1 [Compound 737]
8.38 to 10.8 µM	> 10.8 µM	8.38 to 10.8 µM	> 10.8 µM	8.38 to 10.8 µM	8.38 to 10.8 µM	> 10.8 µM	0.958 to 5.75 µM	> 10.8 µM	> 10.8 µM	COC(=O)c1ccc(-c2cc(Nc3ncnc(Nc4ccc(CO)cc4)n3)[nH]n2)cc1 [Compound 989]
> 13.7 µM	> 13.7 µM	> 13.7 µM	> 13.7 µM	> 13.7 µM	> 13.7 µM	> 13.7 µM	> 13.7 µM	> 13.7 µM	> 13.7 µM	CCOC(=O)CNc1ncnc(N2CCCc3cc(C)ccc32)n1 [Compound 761]
> 10.6 µM	> 10.6 µM	> 10.6 µM	> 10.6 µM	> 10.6 µM	8.22 to 10.6 µM	> 10.6 µM	> 10.6 µM	> 10.6 µM	> 10.6 µM	CN1CCN(Cc2cccc(Nc3ncnc(Nc4cccc5ccccc45)n3)c2)CC1 [Compound 551]
> 11.9 µM	> 11.9 µM	< 1.06 µM	> 11.9 µM	> 11.9 µM	1.06 to 6.36 µM	6.36 to 9.27 µM	< 1.06 µM	1.06 to 6.36 µM	1.06 to 6.36 µM	COc1ccc(Nc2ncnc(N3CCCc4ccc(C)cc43)n2)cc1OC [Compound 567]
1.09 to 6.57 µM	> 12.3 µM	< 1.09 µM	> 12.3 µM	1.09 to 6.57 µM	9.58 to 12.3 µM	1.09 to 6.57 µM	1.09 to 6.57 µM	1.09 to 6.57 µM	1.09 to 6.57 µM	COC(=O)Cc1cccc(Nc2ncnc(Nc3ccc(C)c(O)c3)n2)c1 [Compound 542]
> 12.5 µM	> 12.5 µM	> 12.5 µM	> 12.5 µM	> 12.5 µM	> 12.5 µM	> 12.5 µM	> 12.5 µM	> 12.5 µM	> 12.5 µM	CN(c1cccc(Cl)c1)c1ncnc(Nc2cc(C(C)(C)C)on2)n1 [Compound 754]
> 12.7 µM	> 12.7 µM	< 1.13 µM	6.77 to 9.88 µM	9.88 to 12.7 µM	9.88 to 12.7 µM	1.13 to 6.77 µM	> 12.7 µM	< 1.13 µM	1.13 to 6.77 µM	COc1cc(Nc2ncnc(-c3cccnc3N)n2)cc(OC)c1OC [Compound 1091]
7.49 to 9.62 µM	7.49 to 9.62 µM	> 9.62 µM	> 9.62 µM	> 9.62 µM	> 9.62 µM	> 9.62 µM	7.49 to 9.62 µM	> 9.62 µM	> 9.62 µM	COc1ccc(CNc2ncnc(Nc3ccc4c(cnn4Cc4ccccc4)c3)n2)cc1OC [Compound 732]
> 13.5 µM	> 13.5 µM	> 13.5 µM	> 13.5 µM	10.5 to 13.5 µM	> 13.5 µM	> 13.5 µM	> 13.5 µM	> 13.5 µM	> 13.5 µM	Cc1ccc2c(c1)CCCN2c1ncnc(NCc2cccnc2)n1 [Compound 777]
6.24 to 9.1 µM	> 11.7 µM	1.04 to 6.24 µM	1.04 to 6.24 µM	1.04 to 6.24 µM	< 1.04 µM	< 1.04 µM	< 1.04 µM	< 1.04 µM	1.04 to 6.24 µM	Cc1ccc2c(c1)CCCN2c1ncnc(Nc2cccc(-c3cnco3)c2)n1 [Compound 774]
> 13 µM	> 13 µM	> 13 µM	> 13 µM	> 13 µM	> 13 µM	> 13 µM	> 13 µM	> 13 µM	> 13 µM	Cc1ccc2c(c1)CCCN2c1ncnc(NCCc2cccnc2)n1 [Compound 775]
> 12.6 µM	> 12.6 µM	1.12 to 6.75 µM	> 12.6 µM	> 12.6 µM	> 12.6 µM	6.75 to 9.84 µM	< 1.12 µM	> 12.6 µM	> 12.6 µM	Fc1ccc(Nc2ncnc(Nc3ccc4cn[nH]c4c3)n2)cc1Cl [Compound 719]
> 13.8 µM	> 13.8 µM	> 13.8 µM	> 13.8 µM	> 13.8 µM	> 13.8 µM	> 13.8 µM	> 13.8 µM	> 13.8 µM	> 13.8 µM	Cc1ccc2c(c1)CCCN2c1ncnc(NCC2CCCO2)n1 (centres unmarked) [Compound 759]
0.929 to 5.58 µM	> 10.5 µM	> 10.5 µM	> 10.5 µM	5.58 to 8.13 µM	5.58 to 8.13 µM	> 10.5 µM	> 10.5 µM	> 10.5 µM	> 10.5 µM	COC(=O)c1ccc(-c2cc(Nc3ncnc(Nc4cccc(C(N)=O)c4)n3)[nH]n2)cc1 [Compound 990]
> 14.1 µM	> 14.1 µM	> 14.1 µM	> 14.1 µM	> 14.1 µM	> 14.1 µM	> 14.1 µM	> 14.1 µM	11 to 14.1 µM	> 14.1 µM	CCC(O)CNc1ncnc(Nc2ccc(OC)c(OC)c2)n1 (centres unmarked) [Compound 788]
9.53 to 12.2 µM	> 12.2 µM	6.53 to 9.53 µM	> 12.2 µM	> 12.2 µM	> 12.2 µM	6.53 to 9.53 µM	< 1.09 µM	1.09 to 6.53 µM	1.09 to 6.53 µM	COc1cc(Nc2ncnc(NCc3ccccc3)n2)cc(OC)c1OC [Compound 630]
< 0.961 µM	> 10.8 µM	< 0.961 µM	> 10.8 µM	0.961 to 5.76 µM	< 0.961 µM	> 10.8 µM	0.961 to 5.76 µM	> 10.8 µM	< 0.961 µM	COc1ccc(-c2cc(Nc3ncnc(Nc4ccc(CC(N)=O)cc4)n3)[nH]n2)cc1 [Compound 576]
1.01 to 6.04 µM	1.01 to 6.04 µM	1.01 to 6.04 µM	> 11.3 µM	> 11.3 µM	1.01 to 6.04 µM	> 11.3 µM	1.01 to 6.04 µM	> 11.3 µM	> 11.3 µM	c1ccc(Cn2ncc3cc(Nc4ncnc(NCc5ccco5)n4)ccc32)cc1 [Compound 728]
< 1.07 µM	9.32 to 12 µM	< 1.07 µM	9.32 to 12 µM	1.07 to 6.39 µM	6.39 to 9.32 µM	6.39 to 9.32 µM	6.39 to 9.32 µM	1.07 to 6.39 µM	1.07 to 6.39 µM	COC(=O)Cc1cccc(Nc2ncnc(-n3c(N)nc4ccccc43)n2)c1 [Compound 546]

From patent US7074789B2, “Kinase inhibitors” (Amgen Inc., priority 1999, dated 2006)
